# Results from patent US6268181A, “Methods for producing a potentiator of Bacillus pesticidal activity” (Valent BioSciences, Corporation, priority 1998, dated 2001).
# Legend:
# Phytophthora medicaginis = settings: cited from earlier work
# Spodoptera exigua = Spodoptera exigua micro-bioassay (potentiation of Bt Cry protein by Ia); assay type: in vivo; settings: for Mortality: after 2 days
# Procedure: Activity is monitored by a Spodoptera exigua micro-bioassay, and purity is determined by capillary electrophoresis. […] The trays containing the various samples are air dried. Two to four 2nd or early 3rd instar Spodoptera exigua are added to the wells containing the dried sample. The wells are sealed with mylar poked with holes and are incubated for 2-3 days at 30° C. Degree of stunting and percent mortality are then recorded. Typically, 5 replicate wells are run for each sample.
# *Mortality = # insects dead/# total insects after 2 days
# .dagger.Stunt score is defined by the average size of the live insect
# larvae at the end of the bioassay: 4.0 = untreated control, 3.0 = 75% size
# of untreated control, 2.0 = 50% size of untreated control, 1.0 = 25% size
# of untreated control, 0.0 = no growth or size unchanged from start of […]
# [1] = Table II, 120 μg/ml, without Ia
# [2] = Table II, 240 μg/ml, without Ia
molecule,measurement,setting,value
NC(=O)NCC(NC(=O)C(O)C(O)C(N)C(O)CC(O)C(N)CO)C(N)=O (stereo not shown) [zwittermicin A],infection of alfalfa,Phytophthora medicaginis; alfalfa,reduces the infection
same,growth of Phytophthora medicaginis,Phytophthora medicaginis; plant pathogen,inhibits the growth
"CryIA(c): Bt crystal delta-endotoxin; truncated in Table I, full-length (130 kDa) in Table II",Stunt Score,"Spodoptera exigua; Table II, 0.8 μg/ml, with Ia",1.6
same,Mortality,"Spodoptera exigua; Table II, 0.8 μg/ml, with Ia",2/5
same,Stunt Score,"Spodoptera exigua; Table II, 3 μg/ml, with Ia",1.0
same,Mortality,"Spodoptera exigua; Table II, 3 μg/ml, with Ia",4/5
same,Stunt Score,"Spodoptera exigua; Table II, 15 μg/ml, with Ia",0.0
same,Mortality,"Spodoptera exigua; Table II, 15 μg/ml, with Ia",4/5
same,Mortality,"Spodoptera exigua; Table II, 30 μg/ml, with Ia",5/5
same,Stunt Score,"Spodoptera exigua; Table II, 30 μg/ml, without Ia",4.0
same,Mortality,"Spodoptera exigua; Table II, 30 μg/ml, without Ia",0/5
same,Mortality,"Spodoptera exigua; Table II, 60 μg/ml, with Ia",5/5
same,Stunt Score,"Spodoptera exigua; Table II, 60 μg/ml, without Ia",2.2
same,Mortality,"Spodoptera exigua; Table II, 60 μg/ml, without Ia",0/5
same,Stunt Score,Spodoptera exigua; [1],2.2
same,Mortality,Spodoptera exigua; [1],0/5
same,Stunt Score,Spodoptera exigua; [2],0.5
same,Mortality,Spodoptera exigua; [2],1/5
same,concentration giving same mortality/stunt score as protein with Ia,"Spodoptera exigua; protein alone, full-length CryIA(c), CryII, CryIC",240 µg/mL
same,Mortality,"Spodoptera exigua; truncated Bt protein, OD280 0.0006, with Ia",1/5
same,Stunt Score,"Spodoptera exigua; truncated Bt protein, OD280 0.0006, with Ia, 4.0 = untreated control, 0.0 = no growth",1.0
same,Mortality,"Spodoptera exigua; truncated Bt protein, OD280 0.0012, with Ia",0/5
same,Stunt Score,"Spodoptera exigua; truncated Bt protein, OD280 0.0012, with Ia, 4.0 = untreated control, 0.0 = no growth",1.0
same,Mortality,"Spodoptera exigua; truncated Bt protein, OD280 0.0025, with Ia",2/5
same,Stunt Score,"Spodoptera exigua; truncated Bt protein, OD280 0.0025, with Ia, 4.0 = untreated control, 0.0 = no growth",2.0
same,Mortality,"Spodoptera exigua; truncated Bt protein, OD280 0.005, with Ia",1/5
same,Stunt Score,"Spodoptera exigua; truncated Bt protein, OD280 0.005, with Ia, 4.0 = untreated control, 0.0 = no growth",0.0
same,Mortality,"Spodoptera exigua; truncated Bt protein, OD280 0.010, with Ia",0/5
same,Stunt Score,"Spodoptera exigua; truncated Bt protein, OD280 0.010, with Ia, 4.0 = untreated control, 0.0 = no growth",0.2
same,Mortality,"Spodoptera exigua; truncated Bt protein, OD280 0.020, with Ia",1/5
same,Stunt Score,"Spodoptera exigua; truncated Bt protein, OD280 0.020, with Ia, 4.0 = untreated control, 0.0 = no growth",0.0
same,Mortality,"Spodoptera exigua; truncated Bt protein, OD280 0.020, without Ia",0/5
same,Stunt Score,"Spodoptera exigua; truncated Bt protein, OD280 0.020, without Ia, 4.0 = untreated control, 0.0 = no growth",2.8
same,Mortality,"Spodoptera exigua; truncated Bt protein, OD280 0.040, without Ia",0/5
same,Stunt Score,"Spodoptera exigua; truncated Bt protein, OD280 0.040, without Ia, 4.0 = untreated control, 0.0 = no growth",2.6
same,Mortality,"Spodoptera exigua; truncated Bt protein, OD280 0.075, without Ia",0/5
same,Stunt Score,"Spodoptera exigua; truncated Bt protein, OD280 0.075, without Ia, 4.0 = untreated control, 0.0 = no growth",3.4
same,OD280 giving same stunt score as protein with Ia,"Spodoptera exigua; truncated CryIA(c), tested alone",0.075 OD280
same,OD280 giving same stunt score as protein alone,"Spodoptera exigua; truncated CryIA(c), with Ia",0.0006 OD280
same,concentration giving same mortality/stunt score as protein alone,"Spodoptera exigua; with Ia, full-length CryIA(c), CryII inclusions, CryIC inclusions",0.75 µg/mL
